Results taken from patent US7951964B2, “Fluorine-containing boronic acid ester compound and method for producing the same” (Unimatec Co., Ltd., priority 2008, dated 2011).

Assay: Solubility in the fluorine-containing organic solvent 1,3-bis(trifluoromethyl)benzene (maximum amount giving a homogeneous solution, judged visually)
Settings: 10 ml of 1,3-bis(trifluoromethyl)benzene, 25° C., stirred, visually measured

Structure (SMILES) | solubility in 1,3-bis(trifluoromethyl)benzene
CC1(C)OB(c2cc(OCCCC(F)(F)C(F)(F)C(F)(F)C(F)(F)C(F)(F)C(F)(F)F)cc(B3OC(C)(C)C(C)(C)O3)c2)OC1(C)C [Example, 1-(1H,1H,2H,2H,3H,3H-perfluorononane-1-yloxy)-3,5-bis-(4,4,5,5-tetramethyl-1,3,2-dioxaborolan-2-yl)benzene] | 5.0 g/10 ml solvent
CC1(C)OB(c2ccc(B3OC(C)(C)C(C)(C)O3)cc2)OC1(C)C [1,4-bis(4,4,5,5-tetramethyl-1,3,2-dioxaborolan-2-yl)benzene] | 0.17 g/10 ml solvent
OB(O)c1ccc(B(O)O)cc1 [1,4-benzene diboronic acid] | insoluble
CC1(C)OB(c2cc(B3OC(C)(C)C(C)(C)O3)cc(B3OC(C)(C)C(C)(C)O3)c2)OC1(C)C [1,3,5-tris(4,4,5,5-tetramethyl-1,3,2-dioxaborolan-2-yl)benzene] | 0.20 g/10 ml solvent
